Laboratory results from PubChem BioAssay AID1963872 (Molecular Pharmacology Branch, DTP, NCI, 2024).

Tested on: KRAS patient-derived spheroids with HUVEC/MSC, viability
Test: Anticancer human tumor 519858-162-T-J1-PDC patient-derived colon adenocarcinoma cell line growth inhibition [KRAS2]
Settings: for IC50: curve of first compound; for viability, T/C: stronger effect = lower value; active = viability on the fitted dose curve at most 10% of control; inactive = the rest
Summary of the method: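 KRAS-mutant tumor cells were grown as spheroids with HUVEC endothelial cells and human MSCs as stroma. Targeted agents were tested alone and with KRAS pathway inhibitors. Doses started at or near clinical Cmax, or 10 microM, descending half-log.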

[1] = second compound 0.0316 µM, first compound 0.000316 µM
[2] = second compound 0.0316 µM, first compound 0.001 µM
[3] = second compound 0.0316 µM, first compound 0.00316 µM
[4] = second compound 0.0316 µM, first compound 0.01 µM
[5] = second compound 0.0316 µM, first compound 0.0316 µM
[6] = second compound 0.1 µM, first compound 0.000316 µM
[7] = second compound 0.1 µM, first compound 0.001 µM
[8] = second compound 0.1 µM, first compound 0.00316 µM
[9] = second compound 0.1 µM, first compound 0.01 µM
[10] = second compound 0.1 µM, first compound 0.0316 µM
[11] = second compound 0.316 µM, first compound 0.000316 µM
[12] = second compound 0.316 µM, first compound 0.001 µM
[13] = second compound 0.316 µM, first compound 0.00316 µM
[14] = second compound 0.316 µM, first compound 0.01 µM
[15] = second compound 0.316 µM, first compound 0.0316 µM
[16] = second compound 1 µM, first compound 0.000316 µM
[17] = second compound 1 µM, first compound 0.001 µM
[18] = second compound 1 µM, first compound 0.00316 µM
[19] = second compound 1 µM, first compound 0.01 µM
[20] = second compound 1 µM, first compound 0.0316 µM
[21] = second compound 3.16 µM, first compound 0.000316 µM
[22] = second compound 3.16 µM, first compound 0.001 µM
[23] = second compound 3.16 µM, first compound 0.00316 µM
[24] = second compound 3.16 µM, first compound 0.01 µM
[25] = second compound 3.16 µM, first compound 0.0316 µM
[26] = second compound 0.0316 µM, first compound 0.1 µM
[27] = second compound 0.1 µM, first compound 0.1 µM
[28] = second compound 0.316 µM, first compound 0.1 µM
[29] = second compound 1 µM, first compound 0.1 µM
[30] = second compound 3.16 µM, first compound 0.1 µM
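Note: compound exposure lasted seven days before readout.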
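Throughout, for viability, T/C: 100% = DMSO vehicle control viability.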

CC(=O)Nc1cccc(-n2c(=O)n(C3CC3)c(=O)c3c(Nc4ccc(I)cc4F)n(C)c(=O)c(C)c32)c1 + C=CC(=O)N1CCN(c2nc(OCC3CCCN3C)nc3c2CCN(c2cccc4cccc(C)c24)C3)CC1CC#N
0.581 nM: IC50 (second compound 1 µM)
active: viability, T/C [25] 7.17%
0.786 nM: IC50 (second compound 3.16 µM)
inactive: viability, T/C (second compound 0.0316 µM, first compound 0.0001 µM) 90.6% | viability, T/C [1] 76% | viability, T/C [2] 65.5% | viability, T/C [3] 57.8% | viability, T/C [4] 29.8% | viability, T/C [5] 19.4% | viability, T/C (second compound 0.1 µM, first compound 0.0001 µM) 59.7% | viability, T/C [6] 62.1% | viability, T/C [7] 75.4% | viability, T/C [8] 63.7% | viability, T/C [9] 38.5% | viability, T/C [10] 14.6% | viability, T/C (second compound 0.316 µM, first compound 0.0001 µM) 80% | viability, T/C [11] 64% | viability, T/C [12] 82.4% | viability, T/C [13] 58.1% | viability, T/C [14] 28.2% | viability, T/C [15] 17.5% | viability, T/C (second compound 1 µM, first compound 0.0001 µM) 63.1% | viability, T/C [16] 42.1% | viability, T/C [17] 49.9% | viability, T/C [18] 40% | viability, T/C [19] 31% | viability, T/C [20] 11.4% | viability, T/C (second compound 3.16 µM, first compound 0.0001 µM) 73.5% | viability, T/C [21] 59.1% | viability, T/C [22] 41% | viability, T/C [23] 44% | viability, T/C [24] 16.7%
5.97 nM: IC50 (second compound 0.1 µM)
3.55 nM: IC50 (second compound 0.0316 µM)
4.47 nM: IC50 (second compound 0.316 µM)

CC(C)n1nc(-c2ccc3oc(N)nc3c2)c2c(N)ncnc21 + C=CC(=O)N1CCN(c2nc(OCC3CCCN3C)nc3c2CCN(c2cccc4cccc(C)c24)C3)CC1CC#N
55.7 nM: IC50 (second compound 3.16 µM)
> 100 nM: IC50 (second compound 0.0316 µM) | IC50 (second compound 1 µM)
inactive: viability, T/C [1] 97.9% | viability, T/C [2] 82% | viability, T/C [3] 81.8% | viability, T/C [4] 63.5% | viability, T/C [5] 61.8% | viability, T/C [26] 57.7% | viability, T/C [6] 103% | viability, T/C [7] 104% | viability, T/C [8] 74.3% | viability, T/C [9] 70.2% | viability, T/C [10] 50.9% | viability, T/C [27] 39.2% | viability, T/C [11] 74.6% | viability, T/C [12] 83.8% | viability, T/C [13] 78.3% | viability, T/C [14] 66.8% | viability, T/C [15] 64.4% | viability, T/C [28] 46.7% | viability, T/C [16] 81% | viability, T/C [17] 82.7% | viability, T/C [18] 78.7% | viability, T/C [19] 68.2% | viability, T/C [20] 84.6% | viability, T/C [29] 66.2% | viability, T/C [21] 80.6% | viability, T/C [22] 76.4% | viability, T/C [23] 76% | viability, T/C [24] 67% | viability, T/C [25] 63% | viability, T/C [30] 38.6%
79.8 nM: IC50 (second compound 0.316 µM)
35 nM: IC50 (second compound 0.1 µM)

CC1(C)CCC(CN2CCN(c3ccc(C(=O)NS(=O)(=O)c4ccc(NCC5CCOCC5)c([N+](=O)[O-])c4)c(Oc4cnc5[nH]ccc5c4)c3)CC2)=C(c2ccc(Cl)cc2)C1 + C=CC(=O)N1CCN(c2nc(OCC3CCCN3C)nc3c2CCN(c2cccc4cccc(C)c24)C3)CC1CC#N
active: viability, T/C (second compound 3.16 µM, first compound 3.16 µM) 0.7% | viability, T/C (second compound 3.16 µM, first compound 10 µM) 0.42%
1300 nM: IC50 (second compound 3.16 µM)
inactive: viability, T/C [5] 86.4% | viability, T/C [26] 92.8% | viability, T/C (second compound 0.0316 µM, first compound 0.316 µM) 76.3% | viability, T/C (second compound 0.0316 µM, first compound 1 µM) 88.1% | viability, T/C (second compound 0.0316 µM, first compound 3.16 µM) 87.9% | viability, T/C (second compound 0.0316 µM, first compound 10 µM) 45.3% | viability, T/C [10] 94.8% | viability, T/C [27] 88.8% | viability, T/C (second compound 0.1 µM, first compound 0.316 µM) 97% | viability, T/C (second compound 0.1 µM, first compound 1 µM) 97.3% | viability, T/C (second compound 0.1 µM, first compound 3.16 µM) 93.9% | viability, T/C (second compound 0.1 µM, first compound 10 µM) 72.5% | viability, T/C [15] 102% | viability, T/C [28] 87% | viability, T/C (second compound 0.316 µM, first compound 0.316 µM) 69.6% | viability, T/C (second compound 0.316 µM, first compound 1 µM) 106% | viability, T/C (second compound 0.316 µM, first compound 3.16 µM) 68.7% | viability, T/C (second compound 0.316 µM, first compound 10 µM) 57.9% | viability, T/C [20] 76.8% | viability, T/C [29] 75.6% | viability, T/C (second compound 1 µM, first compound 0.316 µM) 87.2% | viability, T/C (second compound 1 µM, first compound 1 µM) 69% | viability, T/C (second compound 1 µM, first compound 3.16 µM) 53.4% | viability, T/C (second compound 1 µM, first compound 10 µM) 17.6% | viability, T/C [25] 83% | viability, T/C [30] 67% | viability, T/C (second compound 3.16 µM, first compound 0.316 µM) 70.6% | viability, T/C (second compound 3.16 µM, first compound 1 µM) 64.7%
3450 nM: IC50 (second compound 1 µM)
> 10000 nM: IC50 (second compound 0.1 µM) | IC50 (second compound 0.316 µM)
8770 nM: IC50 (second compound 0.0316 µM)
